Experiment: Solubility statements
Type: physicochemical

Row | Compound | solubility in acetone (Solution V) (1.0 g in 100 g Solution V) | solubility in acetone (DSP in acetone) | solubility in Fluorinert (Fluorinert FC77)
1 | C[C@@H]1C[C@H]2[C@@H]3CCC4=CC(=O)C=C[C@]4(C)[C@@]3(F)[C@@H](O)C[C@]2(C)[C@@]1(O)C(=O)CO [dexamethasone] | dissolve completely |  | 
2 | C[C@@H]1C[C@H]2[C@@H]3CCC4=CC(=O)C=C[C@]4(C)[C@@]3(F)[C@@H](O)C[C@]2(C)[C@@]1(O)C(=O)COP(=O)(O)O [DSP, dexamethasone sodium phosphate] |  | nonsolvent | nonsolvent

— patent publication US10688188B2, “Polytetrafluoroethylene co-polymer emulsions” (W. L. Gore & Associates, Inc., priority 2012, dated 2020)
